Common to all, as to experiment: NCI tumour cell line growth inhibition, 48 h
For test [1], the system named is HOP-92 NSCLC.
Test [2] concerns IGROV1 ovarian.
Test [3] has as its system MOLT-4 leukemia.
Test [4] relates to OVCAR-4 ovarian.
Test [5] has as its system OVCAR-8 ovarian.
Test [6] concerns RPMI-8226 leukemia.
The test system of test [7] is SF-295 CNS.
Test [8] has as its system SK-MEL-2 melanoma.
The test system of test [9] is SK-MEL-28 melanoma.
In test [10] the test system is UO-31 renal.

Several values for one entry are separate records, joined by “and”; a condition that tells them apart may be missing. Equal values may be shown once.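 Cultured in 96-well plates, cells were exposed to test compound for 48 hours across five concentrations. GI50 = concentration required for 50% inhibition of growth. TGI denotes the concentration required for complete inhibition of growth.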

GI50 and TGI data for eight compounds are collected here from PubChem BioAssay (NCI).

Turning to `Cc1c(Cl)c(=O)oc2cc(OC/C=C3\CCC(=O)O3)ccc12`, the GI50 is 13 µM in test [1]; 12.9 µM in [2]; 16.5 µM in [3]; 15.2 µM in test [4]; 20 µM in test [5]; 7.63 µM in [6]. For the same compound, the GI50 in test [7] is 62.9 µM; in [8], 15.7 µM; in test [9] it was 19.7 µM; in [10] it was 12.1 µM. Moreover, the TGI in [1] is 30 µM; in test [2], 27.5 µM; in [3] it was more than 100 µM; in [4], 36.1 µM; in test [5], 47.2 µM; in [6], 42.6 µM. Besides, the TGI in test [7] is more than 100 µM; in test [8], 40.5 µM; in test [9] it was 50 µM; in [10], 25 µM.
On to `CC1=C(/C=C/C(=O)CC(=O)/C=C/C2=C(C)CCCC2(C)C)C(C)(C)CCC1`, for which the GI50 is 28 µM in [1]; 21 µM in test [2]; 6.51 µM in test [3]; 21.7 µM in [4]; 30.3 µM in [5]; 14.9 µM in [6]. The GI50 in test [7] is 15.6 µM; in test [8], 20.3 µM; in test [9], 27 µM; in test [10] it was 26.8 µM. Further, the TGI is more than 100 µM in [1]; 88.5 µM in test [2]; 32.6 µM in test [3]; more than 100 µM in test [4]; more than 100 µM in test [5]; 40.8 µM in test [6]. The TGI was 54.4 µM in test [7], 77.8 µM in test [8], more than 100 µM in test [9] and more than 100 µM in test [10].
As for `CC[C@@]1(OC(=O)C(N)CCCCN)C(=O)OCc2c1cc1n(c2=O)Cc2cc3ccccc3nc2-1` (some centres undefined), the TGI in test [1] worked out at 1.72 µM; in test [2] it was 2.37 µM; in [3], 0.13 µM; in test [4], 2.84 µM; in [5] it was 3.1 µM; in [6], 0.883 µM. Moreover, the TGI amounted to 0.813 µM in test [7], 1.39 µM in test [8], 16.1 µM in test [9] and 0.148 µM in test [10].
As to `COc1cccc(-c2nn(-c3ccccc3)cc2-c2ccnc(NCCCNC(=O)c3cccc(C(F)(F)F)c3)c2)c1`, the GI50 in test [1] is 2.48 µM; in test [2], 7.59 µM; in [3], 2.63 µM; in test [4] it was 4.22 µM; in test [5], 4.67 µM; in test [6] it was 2.64 µM. Also, the GI50 in [7] is 3.32 µM; in [8], 7.23 µM; in test [9], 5.45 µM; in [10], 2.69 µM. Also, the TGI is 17.4 µM in test [1]; 32 µM in test [2]; 9.35 µM in [3]; 32.2 µM in [4]; 20.1 µM in test [5]; 11.5 µM in test [6]. The TGI was 13.9 µM in test [7], 23.6 µM in test [8], 25.3 µM in [9] and 16.6 µM in test [10].
As for `N#Cc1ccc(/C=C(/C(=O)c2ccccc2)c2ccccc2)cc1`, the TGI in test [1] was 39.7 µM; in test [2] it was more than 57.4 µM; in test [3], 10.4 µM; in test [4], 26.9 µM; in test [5], 22.1 µM; in test [6], 8.82 µM. The TGI in [7] is 35.2 µM; in test [8], 33.2 µM; in [9], 32.7 µM; in test [10], 28.9 µM.
For `O=C(O)C1CC=CCC1C(=O)Nc1cccc(O)c1` (centres undefined), the TGI in [1], in test [2], in [3], in test [4], in [5] and in test [6] was more than 100 µM throughout. Moreover, the TGI in test [7], in [8], in [9] and in test [10] was more than 100 µM in each case.
`Cc1ccc(S(=O)(=O)N/N=C(\c2nc3ccc([N+](=O)[O-])cc3[nH]c2=O)C(O)c2ccc([N+](=O)[O-])cc2)cc1` (centres undefined): the TGI in [1], in test [2], in test [3], in [4], in [5] and in test [6] was more than 100 µM in each case. Further, the TGI in test [7], in test [8], in [9] and in test [10] was more than 100 µM each time.
Regarding `CN1CCN(c2ccc(OC(F)(F)F)c(Nc3ncc4c(n3)-c3c(c(C(N)=O)nn3CCO)CC4)c2)CC1`, the GI50 in test [1] is 0.545 µM and 0.242 µM; in test [3], 0.0349 µM and 0.0615 µM; in test [4], 6.92 µM and 1.39 µM; in test [5], 0.0506 µM and 0.0624 µM; in test [6], 0.774 µM and 0.324 µM; in test [7] it was 0.0575 µM and 0.244 µM. Also, the GI50 is 0.0543 µM in test [8]; 0.738 µM in test [9]; 2.88 µM and 2.28 µM in test [10]. The TGI was 14.3 µM and > 3.62 µM in [1]; 46.6 µM and > 10 µM in test [2]; 18.5 µM and > 10 µM in test [3]; 41.2 µM and > 10 µM in test [4]; 61.5 µM and > 4.59 µM in test [5]; 35 µM and > 10 µM in test [6]. In addition, the TGI in [7] was 18.6 µM and > 10 µM; in test [8], more than 10 µM; in test [9], more than 10 µM; in [10] it was 38.2 µM and > 9.18 µM.
